For assay [1], the system named is growth hormone (GH) production. In words: GH production suppression test with rats. Format: in vivo, rat. The settings on record: for GH: rat plasma GH concentration; for GH concentration in plasma / GH production suppression activity (in words): rat; for GH concentration in plasma: 1 hour before GRF, blood 5 minutes after GRF, vehicle 861; for GH production suppression activity (in words): s.c., 10 or 100 nmol/kg. From the text:
As shown in Example 69, the glycosylated polypeptide of the present invention had affinity towards each receptor of SSTR. […] Increase of GH production amount into the blood is thought to cause proliferation or differentiation of cells and activation or suppression of the biosynthetic system in various organs via the paracrine effect of GH, and thereby influence biological reactions. Somatostatin released from the hypothalamus suppresses GH secretion from the anterior pituitary gland into the blood.
. Moreover, GRF (GH releasing hormone, Growth hormone releasing factor) was used as the GH release enhancer. GRF was prepared by dissolving GRF injectable solution (GRF Sumitomo 50 for injection, Lot. 2006C, from Dainippon Sumitomo Pharma Co., Ltd.) in 1 mL of water for injection (Lot. 09H18C, from Fuso Pharmaceutical Industries, Ltd.), and then diluting to 25-folds with saline to obtain 2 μg/mL. As heparin employed as the anticoagulant when collecting blood, Japanese Pharmacopeia heparin sodium injectable solution (Lot. B084, from Mochida Pharmaceutical Co., Ltd.) was used directly as stock solution.
[…]. As the control group, saline without glycosylated polypeptide was similarly administered (vehicle group). Then, i.e. between 5-6 minutes after the administration of the glycosylated form, pentobarbital sodium (somnopentyl, Lot. 0608101, from Kyoritsuseiyaku Corporation) was intraperitoneally administered as a general anesthetic with a glass syringe and an injection needle to give 50 mg/kg. […] […].
. […] By multiplying the results obtained and the dilution ratio, the GH concentration was calculated.

The subject of assay [2] is rat gastrointestinal obstruction model. In words: Gastrointestinal obstruction model: intestinal fluid weight of the jejunum. The settings on record: for Intestinal fluid weight: Table 9, rat, 40 μM solution 1 mL/kg s.c. 18 h after ligation, 1 h after administration. The class given is in vivo.
Description: Anesthesia was introduced with inhalation of 2% isoflurane and laughing gas:oxygen=7:3, and this was maintained throughout the surgery. A median incision was made in the abdomen, and the jejunum at about 10 cm from the musculus suspensorius duodeni was ligated with a surgical suture. Then, the incision site was promptly sutured, and the rats were fasted until compound administration. In the sham treatment group, ligation of the jejunum was not performed, but the treatment of suturing the incision site after a median incision was made in the abdomen was performed.
(§1) Eighteen hours after the gastrointestinal obstruction surgery, this was subcutaneously administered into the dorsal cervix at a dosage of 1 mL/kg with a glass syringe and a 25 G injection needle (all from Terumo Corporation). As the vehicle group, saline without glycosylated polypeptide was similarly administered.
One hour after compound administration, a median incision was made in the abdomen under inhalation anesthesia, and 1.5 mL of blood was collected from the abdominal vena cava. Then, the ligated jejunum on the musculus suspensorius duodeni side was resected. The fluid and blood on the jejunum surface were removed with a paper towel, nerves, blood vessels, and fat attached to the jejunum was removed, this was cut into 6 cm lengths, and wet weight was measured. This was then dried at 36 degrees for 24 hours, and dry weight was measured. The intestinal fluid weight (mg) was calculated by wet weight-dry weight.
Another assay has as its system SSTR1-SSTR5. Put plainly: Competitive binding assay, statements over all receptors SSTR1-SSTR5. Set-up: species or system Human. The settings on record: range over SSTR1-SSTR5, Example 69-1.
For assay [3], the system named is rat gastrointestinal obstruction model. In words: Gastrointestinal obstruction model: blood parameters (amylase, LDH, CPK). Format: in vivo.
Protocol: This experimental line was carried out as a test line to evaluate the promotion of intestinal fluid absorption or the secretory suppressing action, using the change in the intestinal fluid weight in the jejunum after bowel obstruction as an indicator. Moreover, blood parameters of deviation enzymes amylase (pancreas), lactate dehydrogenase (LDH, liver), and creatine phosphokinase (CPK, skeletal muscle, cardiac muscle etc.) were measured as indicators of tissue disorders.
The present test was consigned to Mitsubishi Chemical Medience Corporation and carried out. […] Anesthesia was introduced with inhalation of 2% isoflurane and laughing gas:oxygen=7:3, and this was maintained throughout the surgery. A median incision was made in the abdomen, and the jejunum at about 10 cm from the musculus suspensorius duodeni was ligated with a surgical suture. Then, the incision site was promptly sutured, and the rats were fasted until compound administration. In the sham treatment group, ligation of the jejunum was not performed, but the treatment of suturing the incision site after a median incision was made in the abdomen was performed.
as §1
One hour after compound administration, a median incision was made in the abdomen under inhalation anesthesia, and 1.5 mL of blood was collected from the abdominal vena cava.
The measuring methods employed were BG5B, UV-rate, and JSCC methods, respectively.
The mark [4] stands for this setting: Table 10, blood 1 h after s.c. administration.
The mark [5] stands for this setting: blood collected one hour after compound administration, rat gastrointestinal obstruction model.

Protocol for SSTR1-SSTR5: Competitive binding assay was performed with the method below to calculate receptor binding affinity.
Competitive binding assay was consigned to Ricerca Biosciences, and experiment and data analysis was performed. […] The test substance was used at a concentration of 0.01 nM, 0.1 nM, 1 nM, 10 nM, 100 nM, or 1000 nM, and mixed with the membrane sample into a reaction solution. The incubation condition of the reaction solution was at 25° C. for 4 hours for SSTR2 and at 25° C. for 2 hours for SSTR1, SSTR3, SSTR4, and SSTR5.

For “S1C(disialo(aminoethylamide))-SRIF28 [Example 59]”, the “GH” value in assay [1] (dose 10 nmol/kg) amounted to 314 ng/mL.
Turning to N5C(disialo)-SRIF28 [Example 2], the “GH” value in assay [1] (dose 1 nmol/kg) stood at 969 ng/mL; in assay [1] (dose 10 nmol/kg), 12 ng/mL.
On to S1C(asialo)-SRIF28 [Example 27], for which the results for the “GH” value in assay [1] (dose 1 nmol/kg), in assay [1] (dose 3 nmol/kg) and in assay [1] (dose 10 nmol/kg) were 879 ng/mL, 515 ng/mL and 146 ng/mL, respectively.
As for S1-2C(asialo)-SRIF28 [Example 28], the “GH” value is 997 ng/mL in assay [1] (dose 3 nmol/kg) and 175 ng/mL in assay [1] (dose 10 nmol/kg). In assay [2], this compound yielded an Intestinal fluid weight of 566 ± 34 mg. Also, in assay [2] (text on Table 9), the “Intestinal fluid weight compared to the vehicle (in words)” value is recorded as “increase in the intestinal fluid weight compared to the vehicle”. The “Affinity towards SSTR1-SSTR5, times higher than S1C(disialo)-SRIF28” value with SSTR1-SSTR5 was 1.7-2.9 folds.
As to `C[C@@H](O)[C@@H]1NC(=O)[C@H](CCCCN)NC(=O)[C@@H](Cc2c[nH]c3ccccc23)NC(=O)[C@H](Cc2ccccc2)NC(=O)[C@@H](NC(=O)[C@H](N)Cc2ccccc2)CSSC[C@@H](C(=O)N[C@H](CO)[C@@H](C)O)NC1=O` [Octreotide], in assay [3] (setting [4]), the “Amylase activity compared to the vehicle (in words)” value is “equivalent to the vehicle” and the “LDH activity compared to the vehicle (in words)” value is listed as “low value compared to the vehicle”. For the same compound, in assay [3] (setting [5]), the “Amylase (IU/L)” value amounted to 1732 ± 774 IU/L, the “CPK (IU/L)” value is on record as 472 ± 215 IU/L and the “LDH (IU/L)” value was 269 ± 141 IU/L. This compound also returned an Intestinal fluid weight in assay [2] of 693 ± 48 mg.
Regarding 29C(disialo)-SRIF28 [Example 13], the “GH concentration in plasma” value in assay [1] (subcutaneous 10 nmol/kg) is on record as 497 ng/mL; in assay [1] (subcutaneous 100 nmol/kg) it was 88.5 ng/mL.
K14C(disialo)-SRIF28 [Example 6]: in assay [1] (dose 10 nmol/kg), the “GH” value turned out to be 55 ng/mL. The “GH production suppression activity (in words)” value in assay [1] is recorded as “showed GH production suppression activity”.
In the case of E12C(disialo)-SRIF28 [Example 4], the “GH” value in assay [1] (dose 10 nmol/kg) is on record as 10 ng/mL.
Same read-out and setting: under S1C(disialo(Bn))-SRIF28 [Example 61] stands 49 ng/mL.
For the compound “S1C(disialo)-D-Trp22-SRIF28 [Example 15]”, the “GH” value in assay [1] (dose 0.3 nmol/kg) is 986 ng/mL; in assay [1] (dose 1 nmol/kg), 335 ng/mL; in assay [1] (dose 3 nmol/kg) it was 50 ng/mL; in assay [1] (dose 10 nmol/kg) it was 6 ng/mL; in assay [1] (dose 30 nmol/kg) it was 2 ng/mL.
For the compound S1C(monosialo)-SRIF28 [Example 26], the “GH” value in assay [1] (dose 10 nmol/kg) was 47 ng/mL.
Regarding A9C(disialo)-SRIF28 [Example 3], the results for the “GH” value in assay [1] (dose 1 nmol/kg) and in assay [1] (dose 10 nmol/kg) were 577 ng/mL and 20 ng/mL, respectively.
As to R13C(disialo)-SRIF28 [Example 5], the “GH” value in assay [1] (dose 10 nmol/kg) was 136 ng/mL. The “GH production suppression activity (in words)” value in assay [1] is recorded as “showed GH production suppression activity”.
For N19C(disialo)-SRIF28 [Example 10], the entries for the “GH concentration in plasma” value in assay [1] (subcutaneous 10 nmol/kg) and in assay [1] (subcutaneous 100 nmol/kg) were 563 ng/mL and 1.5 ng/mL, respectively.
Consider S1C(disialo(amide))-SRIF28 [Example 60], for which, in assay [1] (dose 10 nmol/kg), the “GH” value was determined as 14 ng/mL.

These data come from patent US9441024B2, “Glycosylated polypeptide and drug composition containing said polypeptide” (priority 2011, dated 2016).
